Measurements from patent US11964996B2, “2-alkynylmannose derivative and application thereof” (priority 2020, dated 2024).

Target: T1, FimH proteins (Escherichia coli, UniProt Q1R2J4)
T1 construct: endogenous in cells; host or cells: UPEC strain UTI89 (whole bacteria)
Assay: hemagglutination inhibition (HAI) assay: UPEC UTI89 with guinea pig red blood cells
Assay type: cell-based, uropathogenic Escherichia coli (UPEC) UTI89
Conditions: read-out: HAI EC90 (minimum concentration for inhibiting hemagglutination)
Procedure: In the present example, the mannose derivatives A1 to A107 that were prepared in Examples 1 to 12 were analyzed in hemagglutination inhibition (HAI) assays to determine inhibitory effects of the compounds on the function/activity of FimH proteins.
1. Preparation of a guinea pig red blood cell solution: an adult guinea pig was anesthetized with ethyl ether, blood was sampled from the heart, placed in an EDTA blood collection tube, and centrifuged at 2,000 rpm for 5 min, serum was removed, the sample was transferred in a centrifuge tube (15 mL), sterilized PBS was added, the sample was centrifuged at 1,500 rpm for 10 min, a supernatant was removed, the sample was transferred in a centrifuge tube (50 mL), PBS was added, the sample was centrifuged at 1,500 rpm for 10 min and repeatedly washed twice, and red blood cells were slightly aspirated into a new centrifuge tube (50 mL) to obtain a 5% guinea pig red blood cell solution.
2. Preparation of a bacteria solution: a UPEC cell line UTI89 was inoculated on a medium plate and cultured in an incubator at 37° C. overnight. Single colonies were picked and inoculated in an LB medium in a sterilized conical flask, and cultured at 37° C. and 170 r/min overnight. When an OD value at 540 nm was about 0.8 on a microplate reader, the bacterial concentration was about 10^8-10^9 cfu/mL, the bacteria solution was centrifuged at 2,000 rpm for 10 min, a supernatant was removed, and 1 mL of bacteria solution was prepared into 0.1 mL of PBS bacteria solution. […] The bacteria and the medium were uniformly mixed by shaking, and reacted in an incubator at 25° C. for about 20-40 min. When the plate was read, the wells in which complete agglutination occurred were used as 4HAU for the hemagglutination titer of the bacteria. For example, if the endpoint titer of hemagglutination is 1:256, the dilution multiple of the 4HAU antigen is 1:64 (256 divided by 4). Bacteria solutions at corresponding concentrations were prepared according to the experimental results.
3. Activity assay: a compound to be tested or a standard product was placed in a 96-well microtest plate, 50 μL of drug at an initial concentration of 200 μM was placed in the first well, and from the second well, 25 μL of PBS was added to each well to dilute the drug in proportion. The drug and the medium in the first well were mixed, 25 μL of mixed drug solution was placed in the second well, the drug solution was diluted in sequence to the last well, and 25 μL of drug solution was removed. 25 μL of bacteria solution was placed in each well of the culture plate containing the diluted drug, and cultured at 37° C. for 40 min. 25 μL of 5% guinea pig red blood cell suspension was placed in each well, and slightly uniformly mixed with the drug, and the plate was placed at 4° C. for about 1 h. When results were determined, the plate was tilted 60°, and whether the red blood cells flowed like teardrops was observed.
Mannosyl proteins are expressed on the surface of red blood cells in a guinea pig, which can bind to FimH proteins of UTI89 to cause hemagglutination. It can be observed with the naked eyes that the red blood cells form film-like agglutination at the bottom of the well, and loose red dots can be seen in the center. The FimH protein inhibitor competitively binds to FimH proteins to inhibit hemagglutination. It can be observed with the naked eyes that all the red blood cells sink and concentrate at the bottom of the well to form dense dots. The minimum concentration for inhibiting hemagglutination is expressed as an EC90 value of a compound. The final concentration of the compound in the first well is 66700 nM, the concentration in the second well is half that in the first well, the concentration in the third well is half that in the second well, and so on. […] A low EC90 value indicates high activity of a compound.

Compound | EC90 [nM]
OC[C@H]1O[C@H](C#Cc2cnn(C3CCC(F)(F)CC3)c2)[C@](O)(C#Cc2ccccc2)[C@@H](O)[C@@H]1O [Compound A53] | 8
O=c1ccc(C#C[C@H]2O[C@H](CO)[C@@H](O)[C@H](O)[C@@]2(O)C#Cc2ccccc2)cn1C1CCCCC1 [Compound A54] | 4
O=c1ccc(C#C[C@H]2O[C@H](CO)[C@@H](O)[C@H](O)[C@@]2(O)C#Cc2ccccc2)cn1-c1ccccc1 [Compound A55] | 64
CCC(C)O[C@H]1O[C@H](CO)[C@@H](O)[C@H](O)[C@@]1(O)C#Cc1ccc(F)cc1 (some centres unmarked) [Compound A56] | 520
CCC(C)O[C@H]1O[C@H](CO)[C@@H](O)[C@H](O)[C@@]1(O)C#Cc1cccc(Cl)c1 (some centres unmarked) [Compound A57] | 260
CCC(C)O[C@H]1O[C@H](CO)[C@@H](O)[C@H](O)[C@@]1(O)C#Cc1cccc(OC)c1 (some centres unmarked) [Compound A58] | 520
OC[C@H]1O[C@H](C#Cc2cnn(C3CCCCC3)c2)[C@](O)(C#CC2CC2)[C@@H](O)[C@@H]1O [Compound A59] | 4
CO[C@H]1CC[C@H](n2cc(C#C[C@H]3O[C@H](CO)[C@@H](O)[C@H](O)[C@@]3(O)C#Cc3ccccc3)cn2)CC1 [Compound A60] | 2
OC[C@H]1O[C@H](C#Cc2cnn([C@@H]3C[C@H]4C[C@H]4C3)c2)[C@](O)(C#Cc2ccccc2)[C@@H](O)[C@@H]1O [Compound A61] | 8
OC[C@H]1O[C@H](C#Cc2cnn([C@H]3C[C@H]4C[C@H]4C3)c2)[C@](O)(C#Cc2ccccc2)[C@@H](O)[C@@H]1O [Compound A62] | 0.5
CC(n1cc(C#C[C@H]2O[C@H](CO)[C@@H](O)[C@H](O)[C@@]2(O)C#Cc2ccccc2)cn1)C(F)(F)F (some centres unmarked) [Compound A63] | 16
OC[C@H]1O[C@H](C#Cc2cnn(-c3ncccc3Cl)c2)[C@](O)(C#Cc2ccccc2)[C@@H](O)[C@@H]1O [Compound A64] | 4
N#Cc1ccccc1-n1cc(C#C[C@H]2O[C@H](CO)[C@@H](O)[C@H](O)[C@@]2(O)C#Cc2ccccc2)cn1 [Compound A65] | 64
OC[C@H]1O[C@H](C#Cc2cnn(-c3cccc(Cl)c3)c2)[C@](O)(C#Cc2ccccc2)[C@@H](O)[C@@H]1O [Compound A66] | 0.13
OC[C@H]1O[C@H](C#Cc2cnn(-c3ccc(Cl)cc3)c2)[C@](O)(C#Cc2ccccc2)[C@@H](O)[C@@H]1O [Compound A67] | 0.13
OC[C@H]1O[C@H](C#Cc2cnn(-c3ccc(F)cc3)c2)[C@](O)(C#Cc2ccccc2)[C@@H](O)[C@@H]1O [Compound A68] | 8
OC[C@H]1O[C@H](C#Cc2cnn(C3CCCCC3O)c2)[C@](O)(C#Cc2ccccc2)[C@@H](O)[C@@H]1O (some centres unmarked) [Compound A69] | 16
OC[C@H]1O[C@H](C#Cc2cnn(-c3ccccc3Cl)c2)[C@](O)(C#CC2CC2)[C@@H](O)[C@@H]1O [Compound A70] | 8
COc1cnc(-n2cc(C#C[C@H]3O[C@H](CO)[C@@H](O)[C@H](O)[C@@]3(O)C#Cc3cnn(C)c3)cn2)nc1 [Compound A71] | 8
OC[C@H]1O[C@H](C#Cc2cnn(-c3ccc(Cl)cc3)c2)[C@](O)(C#CC2CC2)[C@@H](O)[C@@H]1O [Compound A72] | < 0.1
OC[C@H]1O[C@H](C#Cc2cnn(-c3ccc(Cl)cc3)c2)[C@](O)(C#Cc2cccnc2)[C@@H](O)[C@@H]1O [Compound A73] | 8
Cn1cc(C#C[C@@]2(O)[C@@H](C#Cc3cnn(-c4ccc(Cl)cc4)c3)O[C@H](CO)[C@@H](O)[C@@H]2O)cn1 [Compound A74] | 0.13
CO[C@H]1CC[C@H](n2cc(C#C[C@H]3O[C@H](CO)[C@@H](O)[C@H](O)[C@@]3(O)C#Cc3cc(F)cc(F)c3)cn2)CC1 [Compound A75] | 8
OC[C@H]1O[C@H](C#Cc2cnn([C@H]3CC[C@H](O)CC3)c2)[C@](O)(C#Cc2ccc(F)cc2)[C@@H](O)[C@@H]1O [Compound A76] | 4

Compound | EC90 [nM]
OC[C@H]1O[C@H](C#Cc2cnn([C@H]3CC[C@H](O)CC3)c2)[C@](O)(C#Cc2ccccc2)[C@@H](O)[C@@H]1O [Compound A77] | 2
CCn1cc(C#C[C@@]2(O)[C@@H](C#Cc3cnn(-c4ccc(Cl)cc4)c3)O[C@H](CO)[C@@H](O)[C@@H]2O)cn1 [Compound A78] | < 0.1
Cn1cc(C#C[C@@]2(O)[C@@H](C#Cc3cnn(-c4cnn(C)c4)c3)O[C@H](CO)[C@@H](O)[C@@H]2O)cn1 [Compound A79] | 16
CCC#C[C@@]1(O)[C@@H](C#Cc2cnn(-c3ccc(Cl)cc3)c2)O[C@H](CO)[C@@H](O)[C@@H]1O [Compound A80] | 2
COc1ccc(-n2cc(C#C[C@H]3O[C@H](CO)[C@@H](O)[C@H](O)[C@@]3(O)C#Cc3ccccc3)cn2)cc1 [Compound A81] | < 0.1
COc1ccc(-n2cc(C#C[C@H]3O[C@H](CO)[C@@H](O)[C@H](O)[C@@]3(O)C#Cc3cnn(C)c3)cn2)cc1 [Compound A82] | < 0.1
Cn1cc(C#C[C@@]2(O)[C@@H](C#Cc3cnn(C4CCC(F)(F)CC4)c3)O[C@H](CO)[C@@H](O)[C@@H]2O)cn1 [Compound A83] | 2
Cn1cc(C#C[C@@]2(O)[C@@H](C#Cc3cnn(-c4ccccc4)c3)O[C@H](CO)[C@@H](O)[C@@H]2O)cn1 [Compound A84] | 0.25
Cn1cc(C#C[C@@]2(O)[C@@H](C#Cc3cnn(C4CCCCC4)c3)O[C@H](CO)[C@@H](O)[C@@H]2O)cn1 [Compound A85] | 2
CCC#C[C@@]1(O)[C@@H](C#Cc2cnn(-c3ccccc3)c2)O[C@H](CO)[C@@H](O)[C@@H]1O [Compound A87] | 32
OC[C@H]1O[C@H](C#Cc2cnn(-c3ccccc3)c2)[C@](O)(C#CC2CC2)[C@@H](O)[C@@H]1O [Compound A88] | 4
O=S(=O)(O)c1cccc(C#C[C@@]2(O)[C@@H](C#Cc3cnn(-c4ccc(OC[C@H](O)CO)cc4)c3)O[C@H](CO)[C@@H](O)[C@@H]2O)c1 [Compound A89] | 16
[2H]C([2H])([2H])Oc1ccc(-n2cc(C#C[C@H]3O[C@H](CO)[C@@H](O)[C@H](O)[C@@]3(O)C#CC3CC3)cn2)cc1 [Compound A90] | < 0.1
OC[C@@H](O)COc1ccc(-n2cc(C#C[C@H]3O[C@H](CO)[C@@H](O)[C@H](O)[C@@]3(O)C#Cc3cnn(C[C@H](O)CO)c3)cn2)cc1 [Compound A91] | 8
OC[C@H]1O[C@H](C#Cc2cnn(-c3cccc(Cl)c3)c2)[C@](O)(C#CC2CC2)[C@@H](O)[C@@H]1O [Compound A92] | 2
OC[C@H]1O[C@H](C#Cc2cnn(-c3ccc(F)cc3)c2)[C@](O)(C#CC2CC2)[C@@H](O)[C@@H]1O [Compound A93] | 2
Cc1ccc(-n2cc(C#C[C@H]3O[C@H](CO)[C@@H](O)[C@H](O)[C@@]3(O)C#CC3CC3)cn2)cc1 [Compound A94] | < 0.1
OC[C@H]1O[C@H](C#Cc2cnn(-c3ccc(C(F)(F)F)cc3)c2)[C@](O)(C#CC2CC2)[C@@H](O)[C@@H]1O [Compound A95] | 4
N#Cc1ccc(-n2cc(C#C[C@H]3O[C@H](CO)[C@@H](O)[C@H](O)[C@@]3(O)C#CC3CC3)cn2)cc1 [Compound A96] | 4
COc1ccc(-n2cc(C#C[C@H]3O[C@H](CO)[C@@H](O)[C@H](O)[C@@]3(O)C#CC3CC3)cn2)cc1 [Compound A97] | < 0.1
COCCOc1ccc(-n2cc(C#C[C@H]3O[C@H](CO)[C@@H](O)[C@H](O)[C@@]3(O)C#CC3CC3)cn2)cc1 [Compound A98] | < 0.1
OC[C@H]1O[C@H](C#Cc2cnn(-c3ccc(O[C@@H]4CCOC4)cc3)c2)[C@](O)(C#CC2CC2)[C@@H](O)[C@@H]1O [Compound A99] | < 0.1
OC[C@H]1O[C@H](C#Cc2cnn(-c3ccc(O[C@H]4CCOC4)cc3)c2)[C@](O)(C#CC2CC2)[C@@H](O)[C@@H]1O [Compound A100] | < 0.1
